Series [1] has as its system trypsin. The series is described as follows: Degradation of Aptides by protease, SDS-PAGE. Format: in vitro ADME. Conditions: 10 unit trypsin, 100 μg peptide, FIG. 3. The protocol: (§1) Degradation levels of the L-Aptide1EDB and D-Aptide1EDB were measured using proteases, α-chymotrypsin and trypsin (Sigma). The proteases of 10 unit were added to 100 μg peptides, followed by the reaction for 30, 60, 120 and 720 min, and the reaction was blocked by adding SDS sample buffer (Invitrogen). Subsequently, results for the peptide degradation were obtained from SDS-PAGE.

For series [2], the target named is T1, α-chymotrypsin (Bos taurus, UniProt P00766).
T1 construct: purchased Sigma
The series is described as follows: Degradation of Aptides by protease, SDS-PAGE. Format: in vitro ADME. Conditions: 10 unit α-chymotrypsin, 100 μg peptide, FIG. 3. The protocol: as §1

Series [3] has as its target T2, fibronectin EDB (Homo sapiens, UniProt P02751).
T2 construct: Biotin-EDB of 2000 RU was immobilized on streptavidin SA chip
The series is described as follows: BIAcore X (SPR) affinity for fibronectin EDB. Format: binding. Conditions: biotin-EDB on SA chip; for Kd / koff (dissociation rate constant): PBS pH 7.4; for kon: PBS pH 7.4, read-out: ka. The protocol:
(§2) To investigate whether the activity is maintained where Aptamer-Like Peptides specifically binding to fibronectin EDB, i.e., L-Aptide1EDB are converted into D- and Retro inverso (RI)-form, their affinity to a target was measured. Firstly, 3 peptides, L-Aptide1EDB ([…], all L-amino acids, SEQ ID NO:21), D-Aptide1EDB ([…], all D-amino acids, SEQ ID NO:21) and RI-Aptide1EDB ([…], all D-amino acids), were synthesized by Anigen Inc. (Korea). Their affinity for a target was determined using BIAcore X (Biacore AB, Uppsala, Sweden). Biotin-EDB of 2000 RU was immobilized on streptavidin SA chip (Biacore). A PBS (pH 7.4) was used as a running buffer, a flow rate was 30 μl/min, and the affinity was determined with BIAevaluation software (Biacore AB, Uppsala, Sweden) after measuring kinetics of various concentrations.

In series [4] the target is T3, VEGF (Homo sapiens, UniProt P15692).
T3 construct: purchased R&D Systems
T3 sequence (P15692 27-191 isoform P15692-4): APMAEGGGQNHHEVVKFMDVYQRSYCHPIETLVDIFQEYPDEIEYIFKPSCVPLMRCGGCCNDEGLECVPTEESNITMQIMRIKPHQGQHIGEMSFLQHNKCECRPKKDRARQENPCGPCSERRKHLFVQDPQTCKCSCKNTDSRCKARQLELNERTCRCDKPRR
The series is described as follows: Inhibition of VEGF activity (HUVEC proliferation assay). The conditions noted are these: VEGF165, 72 hours. Format: cell-based. The protocol: HUVECs (Human Umbilical Vein Endothelial Cells, ATCC) were starved in M199 medium (Gibco) supplemented with 1% FBS, and then they were attached to a 96-well plate at 5000 cell/well. After 12 hours, the cells were treated with medium containing both various concentrations of L-Aptide1VEGF and D-Aptide1VEGF, and VEGF165 (R&D Systems). After 72 hours, the growth inhibition rate of HUVECs by the L-AptideVEGF and D-AptideVEGF was determined using EZ-cytox cell viability assay kit (Daeil Labservice, Korea).

The target in series [5] is T4, VEGF121 (Homo sapiens, UniProt P15692).
T4 sequence (P15692 27-147 isoform P15692-9): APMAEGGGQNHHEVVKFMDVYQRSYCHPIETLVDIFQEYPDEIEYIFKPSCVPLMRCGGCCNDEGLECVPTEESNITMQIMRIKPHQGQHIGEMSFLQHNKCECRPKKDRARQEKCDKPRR
Briefly: BIAcore X (SPR) affinity for VEGF. Format: binding. The conditions noted are these: VEGF121 on CM5 chip; for kd: PBS pH 7.4; for kon: PBS pH 7.4, read-out: ka. The protocol: To investigate whether the activity is maintained where Aptamer-Like Peptides specifically binding to VEGF (Vascular endothelial growth factor), i.e., L-Aptide1VEGF are converted into D- and Retro inverso (RI)-form, their affinity to a target was measured. Firstly, 3 peptides, L-Aptide1VEGF ([…], all L-amino acids, SEQ ID NO:23), D-Aptide1VEGF ([…], all D-amino acids, SEQ ID NO:23) and RI-Aptide1VEGF ([…], all D-amino acids), were synthesized by Anigen Inc. (Korea). Their affinity for a target was determined using BIAcore X (Biacore AB, Uppsala, Sweden). VEGF121 of 3000 RU was immobilized on CM5 chip (Biacore). A PBS (pH 7.4) was used as a running buffer, a flow rate was 30 μl/min, and the affinity was determined with BIAevaluation software (Biacore AB, Uppsala, Sweden) after measuring kinetics of various concentrations.

Series [6] addresses T5, fibronectin EDB (UniProt P02751 1266-1356, limits assumed, biotin (site not stated)).
T5 construct: domain: EDB; Biotin-EDB, 2000 RU, immobilised on a streptavidin SA chip; also called Biotin-EDB; fibronectin extra domain B (ED-B)
The series is described as follows: SPR, BIAcore X; biotin-EDB on SA chip, peptide as analyte. The protocol:
as §2, with “(Biacore).” for “(Biacore). A PBS (pH 7.4) was used as a running buffer, a flow rate was 30 μl/min, and the affinity was determined with BIAevaluation software (Biacore AB, Uppsala, Sweden) after measuring kinetics of various concentrations.”

Where a SMILES comes first, the peptide text is derived from it. Where no end group is shown, it is not given here. [ ]: non-standard residue; d: D form.

T5 sequence (P02751 1266-1356 limits assumed): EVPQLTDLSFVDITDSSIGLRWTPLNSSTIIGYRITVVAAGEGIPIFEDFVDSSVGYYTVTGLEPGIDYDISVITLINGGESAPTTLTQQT

As for `CC[C@@H](C)[C@@H](NC(=O)CNC(=O)[C@@H](CCCCN)NC(=O)[C@@H](Cc1c[nH]c2ccccc12)NC(=O)[C@H](NC(=O)[C@@H](Cc1c[nH]c2ccccc12)NC(=O)[C@@H](CCCCN)NC(=O)CNC(=O)[C@@H](CC(N)=O)NC(=O)[C@@H](CCC(=O)O)NC(=O)[C@@H](Cc1c[nH]c2ccccc12)NC(=O)[C@H](NC(=O)[C@@H](Cc1c[nH]c2ccccc12)NC(=O)[C@@H](CO)NC(=O)CNC(=O)[C@H](NC(=O)[C@@H](C)NC(=O)[C@@H](CO)NC(=O)[C@@H](CO)NC(=O)[C@@H](CS)NC(=O)[C@H](N)Cc1c[nH]cn1)C(C)C)[C@H](C)O)[C@H](C)O)C(=O)N[C@@H](C(=O)N[C@H](CCCNC(=N)N)C(=O)N[C@H](CC(C)C)C(=O)N[C@H](CCC(=O)O)C(=O)N[C@H](CCC(N)=O)C(=O)O)[C@H](C)CC` [D-Aptide1EDB] (H-[dH][dC][dS][dS][dA][dV]G[dS][dW][dT][dW][dE][dN]G[dK][dW][dT][dW][dK]G[dI][dI][dR][dL][dE][dQ]-OH; N-terminus and C-terminus assumed), in series [1], the “time to degradation by protease” value is on record as over 360 min. Besides, the “time to degradation by protease” value in series [2] is over 360 min. Further, in series [3], the Kd amounted to 58 nM, the “koff (dissociation rate constant)” value came to 0.0009 s⁻¹ and the kon came out at 15000 M⁻¹ s⁻¹.

With `C[C@H](O)[C@@H](NC(=O)[C@@H](Cc1c[nH]c2ccccc12)NC(=O)[C@@H](CCCCN)NC(=O)CNC(=O)[C@@H](CC(N)=O)NC(=O)[C@@H](CCC(=O)O)NC(=O)[C@@H](Cc1c[nH]c2ccccc12)NC(=O)[C@H](NC(=O)[C@@H](Cc1c[nH]c2ccccc12)NC(=O)[C@@H](CO)NC(=O)CNC(=O)[C@@H](CCC(N)=O)NC(=O)[C@@H](Cc1ccccc1)NC(=O)[C@@H](Cc1ccccc1)NC(=O)[C@@H](CC(N)=O)NC(=O)[C@@H](C)NC(=O)[C@H](N)Cc1c[nH]cn1)[C@H](C)O)C(=O)N[C@H](Cc1c[nH]c2ccccc12)C(=O)N[C@H](CCCCN)C(=O)NCC(=O)N[C@H](Cc1c[nH]c2ccccc12)C(=O)N[C@H](CCCCN)C(=O)N[C@H](Cc1ccc(O)cc1)C(=O)N[C@H](CC(N)=O)C(=O)N[C@H](CCC(N)=O)C(=O)N[C@H](CO)C(=O)O` [D-Aptide1VEGF] (H-[dH][dA][dN][dF][dF][dQ]G[dS][dW][dT][dW][dE][dN]G[dK][dW][dT][dW][dK]G[dW][dK][dY][dN][dQ][dS]-OH; N-terminus and C-terminus assumed), the “inhibition of VEGF activity” value in series [4] (at 10 μM, D-form versus L-form) is “more inhibited VEGF activity than L-form”. Moreover, the “inhibition of VEGF activity” value in series [4] (at 20 μM) was “completely inhibited VEGF activity”. In addition, in series [5], the kd came out at 0.0066 s⁻¹ and the kon was determined as 130000 M⁻¹ s⁻¹. For the same molecule, the Kd in series [5] (PBS pH 7.4, read-out: Kd) amounted to 50 nM.

In the case of `CC[C@H](C)[C@H](NC(=O)CNC(=O)[C@H](CCCCN)NC(=O)[C@H](Cc1c[nH]c2ccccc12)NC(=O)[C@@H](NC(=O)[C@H](Cc1c[nH]c2ccccc12)NC(=O)[C@H](CCCCN)NC(=O)CNC(=O)[C@H](CC(N)=O)NC(=O)[C@H](CCC(=O)O)NC(=O)[C@H](Cc1c[nH]c2ccccc12)NC(=O)[C@@H](NC(=O)[C@H](Cc1c[nH]c2ccccc12)NC(=O)[C@H](CO)NC(=O)CNC(=O)[C@@H](NC(=O)[C@H](C)NC(=O)[C@H](CO)NC(=O)[C@H](CO)NC(=O)[C@H](CS)NC(=O)[C@@H](N)Cc1c[nH]cn1)C(C)C)[C@@H](C)O)[C@@H](C)O)C(=O)N[C@H](C(=O)N[C@@H](CCCNC(=N)N)C(=O)N[C@@H](CC(C)C)C(=O)N[C@@H](CCC(=O)O)C(=O)N[C@@H](CCC(N)=O)C(=O)O)[C@@H](C)CC` [L-Aptide1EDB] (H-HCSSAVGSWTWENGKWTWKGIIRLEQ-OH; N-terminus and C-terminus assumed), in series [1], the “time to degradation by protease” value was at most 30 min. Also, the “time to degradation by protease” value in series [2] was at most 30 min. In series [3], binding was put at a Kd of 65 nM, the “koff (dissociation rate constant)” value was found to be 0.00095 s⁻¹ and the kon is 10000 M⁻¹ s⁻¹.

In the case of `C[C@H](NC(=O)[C@@H](N)Cc1c[nH]cn1)C(=O)N[C@@H](CC(N)=O)C(=O)N[C@@H](Cc1ccccc1)C(=O)N[C@@H](Cc1ccccc1)C(=O)N[C@@H](CCC(N)=O)C(=O)NCC(=O)N[C@@H](CO)C(=O)N[C@@H](Cc1c[nH]c2ccccc12)C(=O)N[C@H](C(=O)N[C@@H](Cc1c[nH]c2ccccc12)C(=O)N[C@@H](CCC(=O)O)C(=O)N[C@@H](CC(N)=O)C(=O)NCC(=O)N[C@@H](CCCCN)C(=O)N[C@@H](Cc1c[nH]c2ccccc12)C(=O)N[C@H](C(=O)N[C@@H](Cc1c[nH]c2ccccc12)C(=O)N[C@@H](CCCCN)C(=O)NCC(=O)N[C@@H](Cc1c[nH]c2ccccc12)C(=O)N[C@@H](CCCCN)C(=O)N[C@@H](Cc1ccc(O)cc1)C(=O)N[C@@H](CC(N)=O)C(=O)N[C@@H](CCC(N)=O)C(=O)N[C@@H](CO)C(=O)O)[C@@H](C)O)[C@@H](C)O` [L-Aptide1VEGF] (H-HANFFQGSWTWENGKWTWKGWKYNQS-OH; N-terminus and C-terminus assumed), in series [4] (at 20 μM), the “inhibition of VEGF activity” value is on record as “completely inhibited VEGF activity”. Further, in series [5], the kd stood at 0.01 s⁻¹ and the kon amounted to 350000 M⁻¹ s⁻¹.

As to [dH][dC][dS][dS][dA][dV]G[dS][dW][dT][dW][dE][dN]G[dK][dW][dT][dW][dK]G[dI][dI][dR][dL][dE][dQ] (designed binder) [D-Aptide1EDB], the koff in series [6] was found to be 0.0009 s⁻¹.

B1: L-Aptide1EDB (designed binder)
peptide: HCSSAVGSWTWENGKWTWKGIIRLEQ
notes: Synthetic 26-mer, all L-amino acids; also called Aptide1EDB (L-form)
B1 showed a koff in series [6] of 0.00095 s⁻¹.

Turning to [dQ][dE][dL][dR][dI][dI]G[dK][dW][dT][dW][dK]G[dN][dE][dW][dT][dW][dS]G[dV][dA][dS][dS][dC][dH] (designed binder) [RI-Aptide1EDB], in series [6], the koff was determined as 0.0011 s⁻¹.

For the origin of these results see patent US20140296479A1, “D-APTIDE AND RETRO-INVERSO APTIDE WITH MAINTAINED TARGET AFFINITY AND IMPROVED STABILITY” (GWANGJU INSTITUTE OF SCIENCE AND TECHNOLOGY, priority 2011, published 2014).
